US20260234185A1, “ANTI-AGING COMPOSITION COMPRISING PEPTIDE COMPLEX AS ACTIVE INGREDIENT” (priority 2023, published 2026)
Where no end group is shown, it is not given here.

Key:
[1] = tested on: FGF21; test: Western blot of FGF21 protein expression in myocytes; format: cell-based, mouse; conditions: differentiated C2C12 myocytes; 0.2, 2, 20 μg/mL; 24 hours; Western blot (FIGS. 6a, 6b)
Experimental: An experiment was performed to determine whether the peptide complex increases the phosphorylation of AMPK and the expression of SIRT1 and FGF21 proteins in myocytes.
C2C12 cells, mouse-derived myoblasts, were cultured in DMEM medium containing 1% P/S and 2% BCS. When the cell confluency reached 70-80%, the cells were seeded in a 6-well culture plate. When the cell confluency in the 6-well culture plate reached 100%, the medium was replaced with differentiation medium (1% P/S, 2% horse serum), and thereafter, the differentiation medium (1% P/S, 2% horse serum) was replaced once every two days. Five days after the first replacement, the peptide complex was treated at concentrations of 0.2 μg/mL, 2 μg/mL, and 20 μg/mL and cultured for 24 hours. The group untreated with the peptide complex was used as the control. After dissolving by adding dissolution buffer thereto, the proteins obtained were centrifuged at 4° C. and 12,000 rpm for 30 minutes, and quantified using a BCA kit. The proteins were subjected to sodium dodecyl sulfate-polyacrylamide gel electrophoresis (SDS-PAGE) and then electrotransferred onto a membrane. The membrane with the proteins attached was blocked by treating it with 5% skim milk, and then the primary antibody was reacted overnight at 4° C. […]

[2] = tested on: FOXO3A gene; test: RT-PCR of FOXO3A gene expression in palmitate-treated adipocytes; format: cell-based; conditions: 3T3-L1 adipocytes, 25 μM palmitate 30 minutes; 0.2, 2, 20 μg/mL; 24 hours; RT-PCR vs palmitate control (PA) (FIGS. 4a, 4b)
Experimental: An experiment was performed to determine whether the peptide complex prepared in Preparation Example 1 increases the gene expression of longevity-related genes, FGF21, SIRT1, AMPK, and FOXO3A, in adipocytes in a state of insulin metabolic disorder induced by palmitate treatment.
When 3T3-L1 preadipocytes reached 80% confluence, they were seeded at 5×10^3 cells/well in a 96-well plate and used for the experiment. Two days after reaching confluence, the medium was replaced with differentiation-inducing medium to induce the differentiation into adipocytes, and two days after the induction, the medium was cultured for 2 days in a medium containing 10% FBS and 10 μg/mL insulin, and then the medium was replaced with 10% FBS every 2 days until their differentiation into adipocytes. After differentiation was complete, the medium was replaced with glucose-free medium, cultured for 16 hours, and then starvation was induced by culturing for 40 minutes in 100 μL KPPH buffer containing 2% BSA. After treating with 25 μM palmitate for 30 minutes, the peptide complexes were treated at concentrations of 0.2 μg/mL, 2 μg/mL, and 20 μg/mL, cultured for 24 hours, and RNA was extracted after 24 hours and RT-PCR was performed. […] Subsequently, the mRNA expression pattern was determined by agarose gel electrophoresis.

[3] = tested on: fibroblast growth factor 21 (FGF21); test: Western blot of FGF21 protein expression in adipocytes; format: cell-based; conditions: differentiated 3T3-L1 adipocytes; 0.2, 2, 20 μg/mL; 1 hour; Western blot (FIGS. 1a, 1b)
Experimental: An experiment was performed to determine whether the peptide complex prepared in Preparation Example 1 using adipocytes increases the phosphorylation of AMP-activated protein kinase (AMPK), which is a longevity-related protein, and increases the expression levels of sirtuin 1 (SIRT1) and fibroblast growth factor 21 (FGF21) proteins in adipocytes.
When 3T3-L1 preadipocytes reached 80% confluence, they were seeded at 5×10^3 cells/well in a 96-well plate and used for the experiment. Two days after reaching confluence, the medium was replaced with a differentiation-inducing medium to induce the differentiation into adipocytes, and two days after the induction, the cells were cultured for 2 days in a medium containing 10% FBS and 10 μg/mL insulin, and then the medium was replaced with 10% FBS every 2 days until their differentiation into adipocytes. Once the differentiation was complete, the medium was replaced with a serum-free medium and cultured for 4 hours to induce starvation. The peptide complexes were treated at concentrations of 0.2 μg/mL, 2 μg/mL, and 20 μg/mL, incubated for 1 hour, dissolved by adding dissolution buffer thereto, and the proteins obtained by centrifugation at 4° C. and 12,000 rpm for 30 minutes were quantified using a BCA kit. […]

peptide complex: prepared by mixing equal amounts of the peptide of SEQ ID NO: 1 (LKTRN) and the peptide of SEQ ID NO: 2 (KGSATGWMA) (also: mixture of two peptides)
increased: expression level of FGF21 protein [1] | expression of FOXO3A gene [2] | expression level of FGF21 protein [3]
